Laboratory results published in the supplement of paper PMC10307832.

Columns and labels:
[1] = compound: CC(C)(C)c1nc(-c2cccc(NS(=O)(=O)c3c(F)cccc3F)c2F)c(-c2ccnc(N)n2)s1 [Dabrafenib] + Cc1nc(Nc2ncc(C(=O)Nc3c(C)cccc3Cl)s2)cc(N2CCN(CCO)CC2)n1 [Dasatinib] (partner 0.075 µM); experiment: relative viability (nuclei count vs DMSO), 5 days (fraction); higher = more cells survive
Outline: (§1)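 Relative viability was taken as the ratio of nuclei in treated wells to nuclei in vehicle wells. Lung cancer cell lines in 1536-well plates received compounds by pin tool one day after seeding, either one drug alone or a fixed anchor-drug dose plus five library-drug doses (not always all listed) in √10 steps. Nuclei were counted on 4× images after 5 days of treatment, and values are medians of duplicate plates.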

[2] = compound: CC(C)(C)c1nc(-c2cccc(NS(=O)(=O)c3c(F)cccc3F)c2F)c(-c2ccnc(N)n2)s1 [Dabrafenib] + CCNC(=O)c1noc(-c2cc(C(C)C)c(O)cc2O)c1-c1ccc(CN2CCOCC2)cc1 [Luminespib] (partner 0.01 µM); experiment: as above
Outline: as §1

| Cell Line | relative viability ([1]; first compound 0.003 µM) | relative viability ([1]; first compound 0.009487 µM) | relative viability ([1]; first compound 0.03 µM) | relative viability ([1]; first compound 0.09487 µM) | relative viability ([1]; first compound 0.3 µM) | relative viability ([2]; first compound 0.003 µM) | relative viability ([2]; first compound 0.009487 µM) | relative viability ([2]; first compound 0.03 µM) | relative viability ([2]; first compound 0.09487 µM) | relative viability ([2]; first compound 0.3 µM) |
| --- | --- | --- | --- | --- | --- | --- | --- | --- | --- | --- |
| NCI-H2023 | 0.559 | 0.589 | 0.586 | 0.516 | 0.673 | 0.866 | 0.817 | 0.755 | 0.661 | 0.84 |
| NCI-H2085 | 0.246 | 0.28 | 0.216 | 0.288 | 0.188 | 0.402 | 0.484 | 0.453 | 0.428 | 0.51 |
| NCI-H2087 | – | 0.894 | 0.798 | 0.519 | 0.657 | – | 0.202 | 0.163 | 0.154 | 0.207 |
| NCI-H2126 | 0.582 | 0.642 | 0.681 | 0.713 | 0.69 | 0.964 | 0.878 | 0.965 | 0.936 | 0.913 |
| NCI-H2170 | 0.597 | 0.483 | 0.53 | 0.618 | 0.544 | 0.759 | 0.792 | 0.73 | 0.568 | 0.604 |
| NCI-H2228 | – | 0.482 | 0.635 | 0.506 | 0.506 | – | 0.184 | 0.147 | 0.118 | 0.165 |
| NCI-H2342 | 0.288 | 0.309 | 0.344 | 0.323 | 0.334 | 0.666 | 0.563 | 0.707 | 0.769 | 0.842 |
| NCI-H2347 | – | 0.309 | 0.308 | 0.448 | 0.38 | – | 0.508 | 0.231 | 0.71 | 0.458 |
| NCI-H2405 | – | 0.221 | – | 0.181 | 0.172 | – | 0.619 | – | 0.528 | 0.642 |
| NCI-H3122 | 0.773 | 0.767 | 0.908 | 0.793 | 0.75 | 0.0822 | 0.0926 | 0.0643 | 0.131 | 0.0575 |
| PC-3 [JPC-3] | 0.882 | 1.06 | 0.925 | 0.881 | 1.03 | 0.782 | 0.649 | 0.655 | 0.736 | 0.696 |
| PC-14 | 0.276 | 0.297 | 0.271 | 0.251 | 0.281 | – | 0.272 | 0.158 | 0.149 | 0.115 |
| RERF-LC-KJ | 0.73 | 0.919 | 0.92 | 0.799 | 0.989 | 1.31 | 1.3 | 1.26 | 1.31 | 1.25 |
| SK-LU-1 | – | 0.185 | 0.193 | 0.173 | 0.188 | – | 0.234 | 0.169 | 0.22 | 0.201 |
| SK-MES-1 | 0.323 | 0.412 | 0.417 | 0.317 | 0.289 | 0.676 | 0.973 | 0.86 | 0.8 | 0.688 |
| SW 1573 | 0.263 | 0.557 | 0.457 | 0.279 | 0.379 | 0.179 | 0.314 | 0.289 | 0.633 | 0.217 |
| UMC-11 | 0.43 | 0.462 | 0.41 | 0.446 | 0.501 | 1.14 | 1.12 | 0.85 | 0.939 | 1.07 |
